Measurements from publication PMC5641551, “Chemical Proteomics for Target Discovery of Head-to-Tail Cyclized Mini-Proteins” (Frontiers in Chemistry, 2017).

Columns and labels:
[1] = test system: myelin oligodendrocyte glycoprotein (MOG)-immunized mouse splenocytes; assay: anti-proliferation assay of MOG-restimulated splenocytes from 2D2 mice; assay type: cell-based; conditions: summary in words; [T20K,W23Bpa]kB1 versus [T20K]kB1, 4 μM
Procedure: Biological integrity of probes was determined using their reported immunosuppressive activity (Grundemann et al., [2013]; Thell et al., [2016]). Briefly, activity was measured in isolated lymphocytes derived from self-donated human venous blood or mouse splenocytes derived from 2D2 myelin oligodendrocyte glycoprotein specific T-cell receptor transgenic mice on a C57Bl/6 background [C57Bl/6-Tg(Tcra2D2,Tcrb2D2) Kuch/J]. These mice develop spontaneous experimental autoimmune encephalomyelitis, a mouse model of multiple sclerosis. Bioactivity was assessed by T-cell proliferation using FACS or cytokine concentration analysis of interleukin-2 in the supernatant of ex vivo re-stimulated splenocytes for 72 h using an ELISA kit and antibodies from eBioscience® (Grundemann et al., [2013]; Thell et al., [2016]). All experiments were approved according to the European Community rules of animal care with the permission of the Austrian Ministry of Science (BMWF-66.009/0241-II/3B/2011).
If not stated in detail for the respective single experiment the statistical tests were performed using GraphPad Prism 5.04 (GraphPad, La Jolla, CA) using one-way ANOVA with Bonferonni or Dunnett's Post-hoc test. […] Silver stained gel lanes were evaluated by loading various amounts, and then the amount with optimized staining contrast was loaded and used for in-gel protein digestion. […]

[2] = test system: 14-3-3 proteins / 25 kDa protein band in murine splenocyte lysates; assay: photo-affinity pull down, splenocyte lysate, with competitors; assay type: binding, mouse; conditions: for competition effect for 14-3-3 proteins (order): competitors at 100-fold molar excess versus bait [T20K,W23Bpa]kB1, in-gel digestion and proteomics
Procedure: (§1) Splenocytes or Jurkat cells were lysed with 25 mM Tris-HCl pH 7.4, 40 mM KCl, 2.5 mM MgSO4 2.5 mM CaCl2, 2% (v/v) glycerol, 1 mM EDTA under repeated freeze-thaw cycles and 10 min sonification. All experiments were performed in buffer with 1x complete protease inhibitor cocktail (Hoffman-La Roche, Basel, Switzerland). Cell membranes and debris were pelleted for 30 min at 16,000 × g and the supernatant corresponds to the “soluble cell lysate.” Protein concentration was determined using a bicinchoninic acid assay kit (Thermo Scientific) and DTT (1 mM) was added to keep redox potential constant during binding experiments. Photo-affinity pull down samples were submitted to denaturing sodium dodecyl sulfate polyacrylamide gel electrophoresis (PAGE). For immunoblotting according to earlier published protocols (Gruber et al., [2007]; Bergmayr et al., [2013]) proteins were semi-dry transferred onto a nitrocellulose membrane 0.45 μM (Amersham Protran, GE Healthcare, Austria) using a Fast Semi-dry blotter (Bio-Rad) at 0.25 mA per gel for 1 h. Primary rabbit anti-GFP antibody (1:5,000) was from Invitrogen (A6455), rabbit anti-GST antibody (1:2,500) from Abcam (ab9085), and mouse anti-human calcineurin subunit A antibody (1:2,000) clone BE2.1 from eBioscience. Secondary ECL anti-mouse (NA931V) or ECL anti-rabbit (NA934VS) IgG antibodies (1:10,000) were conjugated with horse radish peroxidase (GE Healthcare). Chemo-luminescence signals were detected on an imaging system FluorChem HD2 (Alpha Innotech, CA, United States). For silver staining protein gels were treated immediately after electrophoresis with fixing solution EtOH/ddH2O/acetic acid 50/40/10% (v/v/v) for 20 min. Gels had to be washed acid free, first with 50% (v/v) EtOH for 10 min and with ddH2O for 2 h. Gels were exposed to sensitization buffer 0.025% Na2S2O3 in ddH2O for 3 min, followed by 2 min wash with ddH2O. Gels were silver loaded using a 0.15% AgNO3 solution for 45 min in the dark. The protein bands were stained in development buffer formaldehyde/Na2CO3 0.04/2% (v/w) under rigorous shaking. The reaction was quenched with 5% (v/v) acetic acid solution and the gels were stored until further processing in the stopping buffer at 4°C. Pixel quantification was carried out using ImageJ v1.47 (National Institute for Health).
(§2) Biotin-LC-LC-labeled (ThermoFisher) peptides (1–5 nmoles) with or without (non-biotinylated) competitor (20–100-fold molar excess) were incubated with Jurkat cell or murine splenocyte cell lysates (150–500 μg proteins) for 2 h at 4°C in the presence of protease inhibitors. UV-activation of photo-crosslinking moiety benzophenone was induced by irradiation at 360 nm on ice for 15 min (Stratalinker, Stratagene, CA, United States). […]

GST-tagged 14-3-3β = assay: co-precipitation of GST-tagged 14-3-3β with cyclotide probe and competitors; assay type: binding; conditions: immunoblot and far Western blot; 2 h at 4°C; competitors 150–500-fold molar excess
Procedure: as §1
as §2, with “([…])” for “(non-biotinylated) competitor (20–100-fold molar excess)”

[3] = test system: Foxo3a transcriptional activity in HEK293 cells co-transfected with 14-3-3β; assay: Foxo3a luciferase reporter gene assay; assay type: cell-based, human; conditions: for Foxo3a transcriptional activity, effect in words: HEK293, luciferase reporter, PI3K inhibitors as controls, peptide 4 h
Procedure: Jurkat cells were cultured in RPMI medium containing phenol red supplemented with 10% (v/v) heat deactivated fetal calf serum and 100 U/mL penicillin/streptomycin at 37°C in humidified atmosphere of 5% CO2. HEK293 cells were cultured in Dulbecco's modified eagle high glucose medium supplied with 10% fetal calf serum and 100 U per mL penicillin/streptomycin. Cell transfection was carried out by Jetprime® according to the manufacturer's recommendation (Polyplus, Illkirch, France).
Forkhead box protein 3a induced transcriptional activity was measured on transiently transfected HEK293 cells (5 × 10^4). The reporter plasmid encoding luciferase under the control of a promotor containing forkhead responsive elements and the human p-Foxo3a-HA plasmid were gifts of Michael Greenberg provided by the Addgene consortium (#1787 and #1789; Brunet et al., [1999]). The plasmids encoding the mouse p-14-3-3 beta-GST protein and the functional forkhead transcription factor were used in a 1.5-fold amount compared to the reporter construct. The transfection was completed after 6 h and the cells could recover for 4 h in growth medium. The cells were serum starved using 1% (v/v) fetal bovine serum in phenol red free DMEM medium supplemented with antibiotics overnight. After 4 h peptide and 24 h of fusicoccin-A treatment the luciferase assay was developed using luciferase development kit from Promega E151 (Wisconsin, United States) and the luminescence was measured on a synergy H4 plate reader (Biotek). Control compounds were the PI3K inhibitors wortmannin and LY294002 (both Sigma Aldrich). The recorded data were normalized to the non-treated control sample. Significance and IC50-values were calculated from at least two biological replicates using GraphPad Prism. Data analysis was performed by non-linear regression using a four parameter Hill equation.
If not stated in detail for the respective single experiment the statistical tests were performed using GraphPad Prism 5.04 (GraphPad, La Jolla, CA) using one-way ANOVA with Bonferonni or Dunnett's Post-hoc test. The number of technical and biological repeats was justified by analysis of error and reproducibility of results. Significance threshold P < 0.05 was applied to all experiments. For the data shown in Figure 3 three individuals for the in vivo experiments were used and each data point was performed in three technical replicates. The pull down experiments shown in Figures 4A,B were performed a single time and the data represent two technical repeats. Gel lanes were loaded with single (1x) or doubled (2x) amount of pull down proteins for better visibility. The data illustrated in Figures 4C,D were performed in two independent experiments. Silver stained gel lanes were evaluated by loading various amounts, and then the amount with optimized staining contrast was loaded and used for in-gel protein digestion. The pull down experiments shown in Figures 4E,F were performed a single time. The Western Blots and the pull down experiment shown in Figure 5 represent experiments in three and two independent experiments, respectively. Experiments in a well-based format (Figure 6) were performed with three technical and two biological replicates. All data illustrated in this manuscript show the mean ± standard deviation (SD) unless stated otherwise. The MS based protein identifications were performed in two technical analyses for each sample.
Figure 6 Foxo3a luciferase reporter assay. The modulation of the Akt/PI3K/Foxo3a pathway by the cyclotide [T20K]kB1 binding to 14-3-3 proteins was investigated. HEK293 cells were transiently transfected with Foxo3a-Luc plasmid encoding luciferase under a promotor with Foxo response elements, Foxo3a and 14-3-3β. For control the reporter plasmid (basal value) was also co-transfected with the single functional effector proteins 14-3-3β or Foxo3a. Cells were treated under starving conditions with peptide or fusicoccin-A (FC-A) for 4 h or 24 h, respectively. […]

14-3-3 proteins = conditions: cited from earlier work
Source text: There are generally two types of 14-3-3 ligands: (i) inhibitors or (ii) stabilizers. […] In contrast, 14-3-3 stabilizers enforce a protein-protein interaction and they may account for an increased retention of 14-3-3 complexed proteins in the cytosol or other cellular compartments (Ottmann, [2013]; Bier et al., [2015]).

| Compound | competition effect for 14-3-3 proteins (order) [2] | binding of probe [T20K,W23Bpa]kB1 to 14-3-3β in presence of competitor (GST-tagged 14-3-3β) | Foxo3a transcriptional activity, effect in words [3] | other results |
| --- | --- | --- | --- | --- |
| CGETCVGGTCNTPGCKCSXPVCTRNGLPV (bicyclic or more) [[T20K,W23Bpa]kB1] | competition effect in the order [T20K]kB1 < [T20K,W23Bpa]kB1 < R18 | significantly altered |  | biological activity of probe [1]: retained biological activity |
| COC[C@H]1OC(=O)c2coc3c2[C@@]1(C)C1=C(C3=O)[C@@H]2CCC(=O)[C@@]2(C)C[C@H]1OC(C)=O [wortmannin, reference compound] |  |  | increased transcriptional activity |  |
| NC(=O)c1ncn([C@@H]2O[C@H](CO)[C@@H](O)[C@H]2O)c1O [mizoribine] |  |  |  | modulation of 14-3-3 protein function (14-3-3 proteins; ref Kawasaki, 2009): modulate 14-3-3 protein function |
| PHCVPRDLSWLDLEANMCLP [R18, reference compound] | competition effect in the order [T20K]kB1 < [T20K,W23Bpa]kB1 < R18 | significantly altered |  | effect on intensity of protein bands ([2]; competitor at 100-fold molar excess, silver stained gel): did not alter the intensity of protein bands throughout the sample; effect as 14-3-3 inhibitor on Foxo3a (14-3-3 proteins; ref Arrendale et al., 2012): increase Foxo3a nuclear import to induce pro-apoptotic transcriptional activity |
| O=c1cc(N2CCOCC2)oc2c(-c3ccccc3)cccc12 [LY294002, reference compound] |  |  | increased transcriptional activity |  |
| C=CC(C)(C)OC[C@H]1O[C@H](O[C@@H]2C3=C([C@H](C)COC(C)=O)C[C@H](O)[C@]3(C)/C=C3/[C@@H](COC)CC[C@H]3[C@@H](C)[C@H]2O)[C@H](O)[C@@H](OC(C)=O)[C@@H]1O [fusicoccin-A, reference compound] |  |  |  | effect as 14-3-3 stabilizer (14-3-3 proteins; ref Skwarczynska et al., 2013, Bier et al., 2015, Milroy et al.): enforce protein complex formation of 14-3-3s with transcription factors; IC50 ([3]; HEK293 transfected with Foxo3a-Luc, Foxo3a and 14-3-3β, fusicoccin-A treatment 24 h, IC50 ± SD, two independent experiments, four parameter Hill fit, read-out: IC50, reduction of luciferase signal): 39.1 ± 2.34 µM |
